Read-outs that look alike come from different tables or passages of the source.
Tests used:
[1] = test system: neuroblastoma cells (ScN2a); settings: mouse
[2] = human, in vivo, cited from earlier work

CN(C)CCCN1c2ccccc2Sc2ccc(Cl)cc21 [chlorpromazine]
decrease in cell population (cytotoxic effects) [1]: 50%

CCN(CC)CCCC(C)Nc1c2ccc(Cl)cc2nc2ccc(OC)cc12 (stereo not shown) [quinacrine]
concentrations without cytotoxic effects on neuroblastoma cells [1]: < 5 µM

CSc1ccc2c(c1)N(CCC1CCCCN1C)c1ccccc1S2 (stereo not shown) [thioridazine]
brain concentration ([2]; po): more than 80 μM
brain concentration [2]: 20 µM
